Measurements: patent US20260274892A1, “MACROCYCLIC BROAD SPECTRUM ANTIBIOTICS” (RQx Pharmaceuticals, Inc., priority 2017, published 2026)

Experiments:
[1] = tested on: Methicillin Resistant Staphylococcus aureus strain USA 200; experiment: Minimum inhibitory concentration (MIC), CLSI broth micro-dilution, S. aureus; type: cell-based; conditions: Staphylococcus aureus, MRSA / USA200; Table 6; MRSA USA 200; cation adjusted Mueller Hinton Broth + 0.002% Tween-80; 35° C., 22 hours
Method in brief: (§1)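 Colonies grown 20 h at 35° C on Trypticase Soy agar (MRSA) or Luria agar (E. coli) were suspended in cation-adjusted Mueller Hinton broth with 0.002% Tween-80. Suspensions were added at OD600 0.0005 to 10-point twofold compound dilutions, then incubated 22 h at 35° C.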

[2] = tested on: Escherichia coli ATCC 25922; experiment: Minimum inhibitory concentration (MIC), CLSI broth micro-dilution, E. coli; type: cell-based; conditions: Escherichia coli, ATCC25922, 22 h, Table 6, cation adjusted Mueller Hinton Broth + 0.002% Tween-80, 35° C.
Method in brief: as §1

Compound | MIC [1] [µM] | MIC [2] [µM]
C[C@@H]1NC(=O)[C@@H](N(C)C(=O)[C@H](CCN)NC(=O)c2cnc(-c3ccc(C(C)(C)C)cc3)c(=O)n2C)c2ccc(OCCN)c(c2)-c2cc(ccc2OCCN)C[C@@H](C(=O)NCC#N)NC1=O (racemic) [Compound 386, rac-(8S,11S,14S)-3,18-bis(2-aminoethoxy)-N-(cyanomethyl)-11-methyl-14-[methyl-[rac-(2S)-4-amino-2-[[5-(4-tert-butylphenyl)-1-methyl-6-oxo-pyrazine-2-carbonyl]amino]butanoyl]amino]-10,13-dioxo-9,12-diazatricyclo[13.3.1.12,6]icosa-1(18),2(20),3,5,15(19),16-hexaene-8-carboxamide] | 0.75 | 8
COC(C)(C)c1ccc(-c2nc(C)c(C(=O)N[C@@H](CCN)C(=O)N(C)[C@@H]3C(=O)N[C@@H](C)C(=O)N[C@H](C(=O)NCC#N)Cc4ccc(OCCN)c(c4)-c4cc3ccc4OCCN)c(C)n2)cc1 (racemic) [Compound 267, rac-(8S,11S,14S)-3,18-bis(2-aminoethoxy)-N-(cyanomethyl)-11-methyl-14-[methyl-[rac-(2S)-4-amino-2-[[2-[4-(1-methoxy-1-methyl-ethyl)phenyl]-4,6-dimethyl-pyrimidine-5-carbonyl]amino]butanoyl]amino]-10,13-dioxo-9,12-diazatricyclo[13.3.1.12,6]icosa-1(18),2(20),3,5,15(19),16-hexaene-8-carboxamide] | 0.39 | 1
CCCCOc1ccc(-c2nc(C)c(C(=O)N[C@@H](CCN)C(=O)N(C)[C@@H]3C(=O)N[C@@H](C)C(=O)N[C@H](C(=O)NCC#N)Cc4ccc(OCCN)c(c4)-c4cc3ccc4OCCN)c(C)n2)cc1 (racemic) [Compound 331, rac-(8S,11S,14S)-3,18-bis(2-aminoethoxy)-N-(cyanomethyl)-11-methyl-14-[methyl-[rac-(2S)-4-amino-2-[[2-(4-butoxyphenyl)-4,6-dimethyl-pyrimidine-5-carbonyl]amino]butanoyl]amino]-10,13-dioxo-9,12-diazatricyclo[13.3.1.12,6]icosa-1(18),2(20),3,5,15(19),16-hexaene-8-carboxamide] | 0.0081 | 0.13
CCCCOc1ccc(-c2ncc(C(=O)N[C@@H](CCN)C(=O)N(C)[C@@H]3C(=O)N[C@@H](C)C(=O)N[C@H](C(=O)NCC#N)Cc4ccc(OCCN)c(c4)-c4cc3ccc4OCCN)c(C)n2)cc1Cl (racemic) [Compound 247, rac-(8S,11S,14S)-3,18-bis(2-aminoethoxy)-N-(cyanomethyl)-11-methyl-14-[methyl-[rac-(2S)-4-amino-2-[[2-(4-butoxy-3-chloro-phenyl)-4-methyl-pyrimidine-5-carbonyl]amino]butanoyl]amino]-10,13-dioxo-9,12-diazatricyclo[13.3.1.12,6]icosa-1(18),2(20),3,5,15(19),16-hexaene-8-carboxamide] | 0.016 | 0.19
Cc1nc(-c2ccc(OC(C)(C)C)cc2)nc(C)c1C(=O)N[C@@H](CCN)C(=O)N(C)[C@@H]1C(=O)N[C@@H](C)C(=O)N[C@H](C(=O)NCC#N)Cc2ccc(OCCN)c(c2)-c2cc1ccc2OCCN (racemic) [Compound 342, rac-(8S,11S,14S)-3,18-bis(2-aminoethoxy)-N-(cyanomethyl)-11-methyl-14-[methyl-[rac-(2S)-4-amino-2-[[2-(4-tert-butoxyphenyl)-4,6-dimethyl-pyrimidine-5-carbonyl]amino]butanoyl]amino]-10,13-dioxo-9,12-diazatricyclo[13.3.1.12,6]icosa-1(18),2(20),3,5,15(19),16-hexaene-8-carboxamide] | 0.097 | 0.39

Further lines, results first:

MIC [1] [µM] | MIC [2] [µM] | Compound
0.065 | 1 | Cc1nc(Cc2ccc(C(C)(C)C)cc2)nc(C)c1C(=O)N[C@@H](CCN)C(=O)N(C)[C@@H]1C(=O)N[C@@H](C)C(=O)N[C@H](C(=O)NCC#N)Cc2ccc(OCCN)c(c2)-c2cc1ccc2OCCN (racemic) [Compound 287, rac-(8S,11S,14S)-3,18-bis(2-aminoethoxy)-N-(cyanomethyl)-11-methyl-14-[methyl-[rac-(2S)-4-amino-2-[[2-[(4-tert-butylphenyl)methyl]-4,6-dimethyl-pyrimidine-5-carbonyl]amino]butanoyl]amino]-10,13-dioxo-9,12-diazatricyclo[13.3.1.12,6]icosa-1(18),2(20),3,5,15(19),16-hexaene-8-carboxamide]
0.016 | 0.063 | CCC(=Cc1ccc(-c2nc(C)c(C(=O)N[C@@H](CCN)C(=O)N(C)[C@@H]3C(=O)N[C@@H](C)C(=O)N[C@H](C(=O)NCC#N)Cc4ccc(OCCN)c(c4)-c4cc3ccc4OCCN)c(C)n2)cc1)CC (racemic) [Compound 276, rac-(8S,11S,14S)-3,18-bis(2-aminoethoxy)-N-(cyanomethyl)-11-methyl-14-[methyl-[rac-(2S)-4-amino-2-[[2-[4-(2-ethylbut-1-enyl)phenyl]-4,6-dimethyl-pyrimidine-5-carbonyl]amino]butanoyl]amino]-10,13-dioxo-9,12-diazatricyclo[13.3.1.12,6]icosa-1(18),2(20),3,5,15(19),16-hexaene-8-carboxamide]
0.063 | 0.38 | Cc1nc(-c2ccc(OC3CCCCC3)cc2)nc(C)c1C(=O)N[C@@H](CO)C(=O)N(C)[C@@H]1C(=O)N[C@@H](C)C(=O)N[C@H](C(=O)NCC#N)Cc2ccc(OCCN)c(c2)-c2cc1ccc2OCCN [Compound 507, (8S,11S,14S)-3,18-bis(2-aminoethoxy)-N-(cyanomethyl)-14-[[(2S)-2-[[2-[4-(cyclohexoxy)phenyl]-4,6-dimethyl-pyrimidine-5-carbonyl]amino]-3-hydroxy-propanoyl]-methyl-amino]-11-methyl-10,13-dioxo-9,12-diazatricyclo[13.3.1.12,6]icosa-1(18),2(20),3,5,15(19),16-hexaene-8-carboxamide]
0.034 | 0.41 | Cc1nc(C#CC2CCCCC2)ccc1C(=O)N[C@@H](CCN)C(=O)N(C)[C@@H]1C(=O)N[C@@H](C)C(=O)N[C@H](C(=O)NCC#N)Cc2ccc(OCCN)c(c2)-c2cc1ccc2OCCN (racemic) [Compound 214, rac-(8S,11S,14S)-3,18-bis(2-aminoethoxy)-N-(cyanomethyl)-11-methyl-14-[methyl-[rac-(2S)-4-amino-2-[[6-(2-cyclohexylethynyl)-2-methyl-pyridine-3-carbonyl]amino]butanoyl]amino]-10,13-dioxo-9,12-diazatricyclo[13.3.1.12,6]icosa-1(18),2(20),3,5,15(19),16-hexaene-8-carboxamide]
0.063 | 3 | C[C@@H]1NC(=O)[C@@H](N(C)C(=O)[C@H](CCN)NC(=O)[C@H]2CC[C@@H](c3ccc(C(C)(C)C)cc3)CC2)c2ccc(OCCN)c(c2)-c2cc(ccc2OCCN)C[C@@H](C(=O)NCC#N)NC1=O [Compound 392, rac-(8S,11S,14S)-3,18-bis(2-aminoethoxy)-N-(cyanomethyl)-11-methyl-14-[methyl-[rac-(2S)-4-amino-2-[[4-(4-tert-butylphenyl)cyclohexanecarbonyl]amino]butanoyl]amino]-10,13-dioxo-9,12-diazatricyclo[13.3.1.12,6]icosa-1(18),2(20),3,5,15(19),16-hexaene-8-carboxamide]
0.023 | 0.094 | Cc1nc(-c2ccc(OC3C[C@H]4CCCC[C@H]4C3)cc2)nc(C)c1C(=O)N[C@@H](CCN)C(=O)N(C)[C@@H]1C(=O)N[C@@H](C)C(=O)N[C@H](C(=O)NCC#N)Cc2ccc(OCCN)c(c2)-c2cc1ccc2OCCN (mixture of isomers) [Compound 349, rac-(8S,11S,14S)-3,18-bis(2-aminoethoxy)-N-(cyanomethyl)-11-methyl-14-[methyl-[rac-(2S)-4-amino-2-[[4,6-dimethyl-2-[4-[[rac-(3aR,7aS)-2,3,3a,4,5,6,7,7a-octahydro-1H-inden-2-yl]oxy]phenyl]pyrimidine-5-carbonyl]amino]butanoyl]amino]-10,13-dioxo-9,12-diazatricyclo[13.3.1.12,6]icosa-1(18),2(20),3,5,15(19),16-hexaene-8-carboxamide]
0.047 | 0.5 | Cc1nc(-c2ccc(OC3CCCCC3)cc2)nc(C)c1C(=O)N[C@@H](CCO)C(=O)N(C)[C@@H]1C(=O)N[C@@H](C)C(=O)N[C@H](C(=O)NCC#N)Cc2ccc(OCCN)c(c2)-c2cc1ccc2OCCN [Compound 509, (8S,11S,14S)-3,18-bis(2-aminoethoxy)-N-(cyanomethyl)-14-[[(2S)-2-[[2-[4-(cyclohexoxy)phenyl]-4,6-dimethyl-pyrimidine-5-carbonyl]amino]-4-hydroxy-butanoyl]-methyl-amino]-11-methyl-10,13-dioxo-9,12-diazatricyclo[13.3.1.12,6]icosa-1(18),2(20),3,5,15(19),16-hexaene-8-carboxamide]
0.016 | 0.12 | CCCCc1ccc(-c2nc(C)c(C(=O)N[C@@H](CCN)C(=O)N(C)[C@@H]3C(=O)N[C@@H](C)C(=O)N[C@H](C(=O)NCC#N)Cc4ccc(OCCN)c(c4)-c4cc3ccc4OCCN)c(C)n2)cc1CCCC (racemic) [Compound 268, rac-(8S,11S,14S)-3,18-bis(2-aminoethoxy)-N-(cyanomethyl)-11-methyl-14-[methyl-[rac-(2S)-4-amino-2-[[2-(3,4-dibutylphenyl)-4,6-dimethyl-pyrimidine-5-carbonyl]amino]butanoyl]amino]-10,13-dioxo-9,12-diazatricyclo[13.3.1.12,6]icosa-1(18),2(20),3,5,15(19),16-hexaene-8-carboxamide]
